Each structure is given as a SMILES string.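 Protocol summary: plate cells (96-well), add compound at 5 concentrations, incubate 48 h, interpolate endpoints linearly. GI50 = concentration required for 50% inhibition of growth. The concentration for full growth arrest is given as TGI.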

What all share (test): growth of human tumour cells (NCI), 48 h
For assay [1], the system named is SNB-75 CNS.
Assay [2] deals with HOP-92 NSCLC.
In assay [3] the test system is OVCAR-3 ovarian.
The subject of assay [4] is SN12C renal.
For assay [5], the system named is HCT-116 colon.
For assay [6], the system named is SK-MEL-28 melanoma.
In assay [7] the test system is SF-295 CNS.
Assay [8] deals with CCRF-CEM leukemia.
Assay [9] relates to RPMI-8226 leukemia.
Assay [10] deals with SR leukemia.

For the molecule `CN(C)Cc1c[nH]c2c1C(=O)c1c(c(O)c3ccccc3c1O)C2=O`, the GI50 in [1] is 20 µM; in assay [2], 13.6 µM; in assay [3] it was 2.44 µM; in assay [4] it was 5.62 µM; in assay [5], 8.17 µM; in assay [6], 27.4 µM. The GI50 in [7] was 3.22 µM; in assay [8], 3.14 µM; in assay [9] it was 4.16 µM. Moreover, the TGI in assay [1] stood at 53.5 µM; in assay [2], 31.7 µM; in assay [3], 13.9 µM; in assay [4], 19.1 µM; in assay [5], 34.8 µM; in assay [6], 58 µM. The TGI in assay [7] turned out to be 17.1 µM; in assay [8] it was 20.7 µM; in assay [9], 22.2 µM.

Regarding `Nc1c(C(=O)N/N=C/c2ccc(-c3ccc(Cl)cc3)o2)cnn1-c1ccnc2c(C(F)(F)F)cccc12`, the GI50 in [1] is 65.4 µM; in assay [2], 50.7 µM; in assay [3] it was above 100 µM; in assay [4], above 100 µM; in assay [5], above 100 µM; in assay [6], above 100 µM. In addition, the values for the GI50 in assay [7] and in assay [9] were above 100 µM and 0.496 µM, respectively. The TGI in assay [1], in assay [2], in assay [3], in assay [4], in assay [5] and in assay [6] was above 100 µM in each case. Also, the TGI in assay [7] and in assay [9] was above 100 µM each time.

As for `C#CC(=O)Nc1cccc(Nc2nc3c(c(NCc4ccccc4)n2)CCCC3)c1`, the GI50 in assay [2] is below 0.01 µM; in [3], 0.042 µM; in [5], 0.12 µM; in assay [6], 1.49 µM; in assay [7], 0.0152 µM. The TGI in assay [2] is below 0.01 µM; in assay [3], 0.175 µM; in assay [5], 0.291 µM; in [6], 2.97 µM; in assay [7], 0.0361 µM.

For the molecule `O=C(CCC/C(CC(=O)c1ccc(Br)cc1)=N\O)Nc1ccccc1`, the TGI in assay [1], in [2], in assay [3], in assay [4], in assay [5] and in [6] was above 100 µM each time. The TGI in assay [7], in assay [8] and in assay [9] was above 100 µM throughout.

On to `CC(=O)Oc1ccccc1C(=O)N=C1[Se]CCCN1C(=O)c1ccccc1OC(C)=O`, for which the GI50 was 2.01 µM in assay [1]; 2.44 µM in assay [10]; 4.12 µM in assay [4]; 2.1 µM in assay [5]; 2.36 µM in [6]; 2.42 µM in [9]. The TGI in [1] amounted to 4.69 µM; in assay [10], 9.17 µM; in [4] it was 24.7 µM; in assay [5] it was 5.95 µM; in [6] it was 5.74 µM; in assay [9] it was 6.13 µM.

Consider `CC(=O)OCC1OC([S-])C(OC(C)=O)C(OC(C)=O)C1OC(C)=O.CC[PH+](CC)CC.CC[PH+](CC)CC.[Au].[Au]` (configuration not stated), for which the GI50 is 0.249 µM in assay [1]; 0.28 µM in assay [2]; 0.376 µM in [3]; 0.567 µM in [4]; 0.397 µM in assay [5]; 0.167 µM in [6]. Also, the values for the GI50 in assay [7], in assay [8] and in [9] were 0.436 µM, 0.0748 µM and 0.138 µM, respectively. For the same molecule, the TGI is 1.16 µM in assay [1]; 0.584 µM in assay [2]; 1.19 µM in [3]; 1.78 µM in assay [4]; 1.7 µM in assay [5]; 0.791 µM in [6]. The figures for the TGI in assay [7], in [8] and in [9] were 1.63 µM, 0.277 µM and 0.761 µM, respectively.

On to `CCOC(=O)CCc1c(C)c2c(OC(C)=O)cc(OC(C)=O)cc2oc1=O`, for which the TGI in [1] is above 100 µM; in assay [2], above 100 µM; in assay [3], 83.3 µM; in [4] it was 87 µM; in assay [5], above 100 µM; in assay [6] it was above 100 µM. Further, the TGI in assay [7] was above 100 µM.

Take `CCCCCc1c(C)[nH]c(/C=C2\N=C(c3ccc[nH]3)C=C2CC)c1C`: the GI50 was below 0.013 µM in assay [2]; 0.0199 µM in [3]; 0.0169 µM in assay [4]; below 0.01 µM in assay [5]; 0.0296 µM in assay [6]; below 0.01 µM in assay [7]. Also, the GI50 in assay [9] is below 0.01 µM. Also, the TGI in assay [2] worked out at 0.0426 µM; in assay [3] it was 0.103 µM; in [4] it was 0.226 µM; in [5], 0.0255 µM; in assay [6] it was 0.144 µM; in assay [7], 0.0363 µM. This molecule also yielded a TGI in assay [9] of 0.0962 µM.

For the molecule `c1ccc2c3ccn4cc5c(cc4c-3nc2c1)CCCC5`, the GI50 is 3.12 µM in [1]; 5.04 µM in [2]; 3.31 µM in assay [3]; 3.57 µM in [4]; 2.72 µM in assay [5]; 2.38 µM in assay [6]. For the same molecule, the GI50 was 2.37 µM in assay [7], 3.52 µM in assay [8] and 5.11 µM in [9]. For the same molecule, the TGI in assay [1] worked out at 12.3 µM; in assay [2], 48.7 µM; in [3], 8.84 µM; in assay [4], 16.2 µM; in [5] it was 8.94 µM; in [6], 11.7 µM. The TGI was 10.5 µM in [7], above 100 µM in assay [8] and above 100 µM in [9].

Turning to `Cc1cn2c(/C=C3/C(=O)Nc4ccccc43)c(-c3ccc(Cl)cc3)nc2s1`, the GI50 in assay [10] was 11.5 µM; in assay [3] it was 9.82 µM; in assay [7] it was 9.22 µM; in assay [8], 17.6 µM; in assay [9] it was 12.3 µM. Further, the TGI in assay [10] was 39.8 µM; in assay [3], 17.9 µM; in [7] it was 17.4 µM; in [8] it was above 50 µM; in assay [9], 39.2 µM.
